# According to patent US5861405A, “S-substituted 1,3,7-trialkyl-xanthine derivatives” (priority 1994, dated 1999):
# Like-named read-outs stand apart in the source and are kept apart here.
# Tests used:
# [1] = molecular target: T1, rat A1 cortical receptors (Rattus norvegicus, UniProt P25099); assay: Radioligand binding, [3H]N6-phenylisopropyladenosine ([3H]PIA), rat cortical A1 receptors; conditions: for Ki: vs [3H]PIA (1 nM), read-out: Ki (A1); for inhibition at 10 µM: 1.5 h, at 10^-5, vs [3H]PIA, read-out: Percent displacement of specific binding (A1)
# T1 construct: Rat cerebral cortical membranes and striatal membranes were prepared; from tissue; host or cells: rat cerebral cortex membranes
# T1 sequence (P25099 1-326): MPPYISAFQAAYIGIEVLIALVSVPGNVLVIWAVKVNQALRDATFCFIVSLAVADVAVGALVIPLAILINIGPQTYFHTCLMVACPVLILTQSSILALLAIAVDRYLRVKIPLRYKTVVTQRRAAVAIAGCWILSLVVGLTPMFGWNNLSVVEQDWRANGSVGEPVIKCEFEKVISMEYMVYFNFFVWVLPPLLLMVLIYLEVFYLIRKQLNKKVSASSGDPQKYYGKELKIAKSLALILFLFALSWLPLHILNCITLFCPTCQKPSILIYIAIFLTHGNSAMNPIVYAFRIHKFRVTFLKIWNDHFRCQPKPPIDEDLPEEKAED
# [2] = molecular target: rat striatal A2a receptors (Rattus norvegicus, UniProt P30543); assay: Radioligand binding, [3H]CGS 21680, rat striatal A2a receptors; parameters: Rat cerebral cortical membranes and striatal membranes were prepared; from tissue; host or cells: rat striatal membranes
# Procedure: The 1,3,7-trialkyl-8-substituted xanthine compounds of the present invention were tested in a radioligand binding assay for affinity at adenosine receptors in rat brain membranes.
# The stock solutions were diluted with DMSO to a concentration of ≥0.1 mM prior to adding to the aqueous medium. The final concentration of DMSO in the assay medium was generally 2%.
# Test drugs were dissolved in DMSO and added in 10 μl aliquots, resulting in a final DMSO concentration of 2%. Non-specific binding was defined using 20 μM 2-chloroadenosine. Filtration was carried out using a Brandel Cell Harvester, as above, using Tris HCl/MgCl2 as the washing buffer.
# At least six different concentrations spanning three orders of magnitude, adjusted appropriately for the IC50 of each compound, were used.
# [3] = Table I, vs [3H]CGS21680 (5 nM), rat striatal A2 receptors, read-out: Ki (A2a)
# [4] = vs [3H]CGS 21680, read-out: Ki value / affinity at A2 receptors
# [5] = Table IV, vs [3H]CGS21680 (5 nM), read-out: Ki (A2)
# [6] = Table III, vs [3H]CGS21680 (5 nM), read-out: Ki (A2)
# Sequence of rat striatal A2a receptors (P30543 whole entry): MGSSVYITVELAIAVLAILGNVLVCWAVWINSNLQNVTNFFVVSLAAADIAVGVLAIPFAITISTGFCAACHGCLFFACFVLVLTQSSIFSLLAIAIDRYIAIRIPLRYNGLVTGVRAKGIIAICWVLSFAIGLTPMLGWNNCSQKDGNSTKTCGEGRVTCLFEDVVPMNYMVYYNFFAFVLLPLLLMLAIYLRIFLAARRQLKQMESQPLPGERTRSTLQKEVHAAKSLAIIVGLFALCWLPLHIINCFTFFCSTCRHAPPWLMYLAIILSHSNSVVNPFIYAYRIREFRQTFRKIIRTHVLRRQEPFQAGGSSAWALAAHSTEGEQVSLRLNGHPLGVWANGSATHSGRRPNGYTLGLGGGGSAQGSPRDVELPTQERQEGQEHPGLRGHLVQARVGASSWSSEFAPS
SMILES,"Ki ([1]; Table I, rat A1 receptors) [µM]","Ki [2, 3] [µM]","A1/A2a ratio ([2]; Table I, ratio of Ki values)",further results
"COc1ccc(/C=C/c2nc3c(c(=O)n(C)c(=O)n3C)n2C)cc1OC [Compound 32b, 1,3,7-Trimethyl-8-(3,4-dimethoxystyryl)xanthine]",13.8,0.197 ± 0.033,–,"A1/A2a ratio ([2]; rat, brain membranes): 70"
"COc1cc(/C=C/c2nc3c([nH]2)c(=O)n(C)c(=O)n3C)cc(OC)c1 [Compound 33a, 1,3-Dimethyl-8-(3,5-dimethoxystyryl)xanthine]",3.04,0.12 ± 0.036,25,–
"COc1cc(/C=C/c2nc3c(c(=O)n(C)c(=O)n3C)n2C)cc(OC)c1 [Compound 33b, 1,3,7-Trimethyl-8-(3,5-dimethoxystyryl)xanthine]",–,0.0753 ± 0.0291,> 200,inhibition at 10 µM [1]: 12.5 ± 6.3%
Cn1c(=O)c2[nH]c(/C=C/c3cc(F)cc(F)c3)nc2n(C)c1=O [Compound 34a],2.33,0.366 ± 0.077,6.4,–
Cn1c(=O)c2c(nc(/C=C/c3cc(F)cc(F)c3)n2C)n(C)c1=O [Compound 34b],14.8,0.065 ± 0.009,230,–
COc1cc(/C=C/c2nc3c(c(=O)n(C)c(=O)n3C)n2C)cc(OC)c1O [Compound 35],8.7,0.45 ± 0.066,19,"potency or selectivity in binding, in words ([2]; rat A1 and A2 binding): moderately selective"
COc1cc(/C=C/c2nc3c(c(=O)n(C)c(=O)n3C)n2C)cc(OC)c1OC(C)=O [Compound 36],6.33,0.068 ± 0.022,93,"A2-selectivity ([2]; rat brain binding, this study): 93 fold"
"COc1cc(/C=C/c2nc3c(c(=O)n(C)c(=O)n3C)n2C)cc(OC)c1OCc1ccccc1 [Compound 37, 1,3,7-Trimethyl-8-(3,5-dimethoxy-4-benzyloxystyryl) xanthine]",4.12,0.139 ± 0.007,30,–
"COc1cc(/C=C/c2nc3c(c(=O)n(C)c(=O)n3C)n2C)cc(OC)c1OCCCCN [Compound 38, 1,3,7-Trimethyl-8-[3,5-dimethoxy-4-[4-aminobutyloxy]styryl]xanthine]",6.17,0.173 ± 0.043,36,–
"COc1cc(/C=C/c2nc3c(c(=O)n(C)c(=O)n3C)n2C)cc(OC)c1OCCCCNC(=O)OC(C)(C)C [Compound 39, 1,3,7-Trimethyl-8-[3,5-dimethoxy-4-[4-(tert-butyloxycarbonylamino)butyloxy]styryl]xanthine]",11,0.265 ± 0.105,42,–
COc1cc(/C=C/c2nc3c(c(=O)n(C)c(=O)n3C)n2C)cc(OC)c1OC/C=C/CN [Compound 40],6.28,0.228 ± 0.02,28,–
COc1cc(/C=C/c2nc3c(c(=O)n(C)c(=O)n3C)n2C)cc(OC)c1OC/C=C/CNC(C)=O [Compound 41],–,0.216 ± 0.04,> 50,inhibition at 10 µM [1]: 17 ± 7%
COc1cc(/C=C/c2nc3c(c(=O)n(C)c(=O)n3C)n2C)cc(OC)c1OC/C=C/CNC(=O)OC(C)(C)C [Compound 42],–,0.353 ± 0.062,> 40,inhibition at 10 µM [1]: 11 ± 5%
COc1ccc(/C=C/c2nc3c([nH]2)c(=O)n(C)c(=O)n3C)c(OC)c1OC [Compound 43a],–,1.61,> 5,inhibition at 10 µM [1]: 26 ± 10%
COc1ccc(/C=C/c2nc3c(c(=O)n(C)c(=O)n3C)n2C)c(OC)c1OC [Compound 43b],6.92,0.206 ± 0.081,34,–
"CCn1c(/C=C/c2cc(OC)c(OC)c(OC)c2)nc2c1c(=O)n(C)c(=O)n2C [Compound 44c, 7-Ethyl-1,3-trimethyl-8-[3,4,5-trimethoxystyryl]xanthine]",6.29,0.882 ± 0.239,7.1,–
COc1cc(/C=C/c2nc3c(c(=O)n(C)c(=O)n3C)n2CCO)cc(OC)c1OC [Compound 44d],–,–,–,"inhibition at 10 µM [1]: 26 ± 9%; inhibition at 10 µM ([2]; 1 h, at 10^-5, vs [3H]CGS21680, read-out: Percent displacement of specific binding (A2a)): 22%"
C#CCn1c(/C=C/c2cc(OC)c(OC)c(OC)c2)nc2c1c(=O)n(C)c(=O)n2C [Compound 44e],4.04,0.525 ± 0.22,7.7,–

SMILES,"Ki ([1]; Table I, rat A1 receptors) [µM]","Ki [2, 3] [µM]","A1/A2a ratio ([2]; Table I, ratio of Ki values)",further results
CCn1c(=O)c2[nH]c(/C=C/c3cc(OC)c(OC)c(OC)c3)nc2n(CC)c1=O [Compound 45a],0.852 ± 0.277,0.269 ± 0.007,3.2,–
CCCn1c(=O)c2c(nc(/C=C/c3cccc([N+](=O)[O-])c3)n2C)n(CCC)c1=O [Compound 48],0.272 ± 0.068,0.0562 ± 0.0068,4.8,–
CCCn1c(=O)c2c(nc(/C=C/c3cccc(N)c3)n2C)n(CCC)c1=O [Compound 49],0.113 ± 0.021,0.0189 ± 0.0053,6.0,"Ki [2, 4]: ≤ 0.05 µM"
CCCn1c(=O)c2[nH]c(/C=C/c3cccc(F)c3)nc2n(CCC)c1=O [Compound 50a],0.078 ± 0.017,0.153 ± 0.031,0.51,–
CCCn1c(=O)c2c(nc(/C=C/c3cccc(F)c3)n2C)n(CCC)c1=O [Compound 50b],0.301 ± 0.064,0.033 ± 0.015,9.1,"Ki [2, 4]: ≤ 0.05 µM"
CCCn1c(=O)c2[nH]c(/C=C/c3cccc(Cl)c3)nc2n(CCC)c1=O [Compound 51a],0.167 ± 0.039,0.216 ± 0.066,0.77,–
CCCn1c(=O)c2[nH]c(/C=C/c3cc(OC)cc(OC)c3)nc2n(CCC)c1=O [Compound 53a],0.632 ± 0.152,0.21 ± 0.14,3.0,–
CCCn1c(=O)c2[nH]c(/C=C/c3cc(F)cc(F)c3)nc2n(CCC)c1=O [Compound 54a],0.146 ± 0.025,0.346 ± 0.097,0.42,–
CCCn1c(=O)c2c(nc(/C=C/c3cc(F)cc(F)c3)n2C)n(CCC)c1=O [Compound 54b],0.382 ± 0.04,0.053 ± 0.015,7.2,"Ki [2, 4]: ≤ 0.05 µM"
CCCn1c(=O)c2[nH]c(/C=C/c3ccc(OC)c(OC)c3OC)nc2n(CCC)c1=O [Compound 55a],0.097 ± 0.019,0.064 ± 0.0156,1.5,–
CCCn1c(=O)c2c(nc(/C=C/c3ccc(OC)c(OC)c3OC)n2C)n(CCC)c1=O [Compound 55b],0.379 ± 0.128,0.0685 ± 0.0126,5.5,–
CCCn1c(=O)c2[nH]c(/C=C/c3cc(OC)c(OC)cc3OC)nc2n(CCC)c1=O [Compound 56a],0.143 ± 0.019,0.323 ± 0.074,0.44,–
CCCn1c(=O)c2c(nc(/C=C/c3cc(OC)c(OC)cc3OC)n2C)n(CCC)c1=O [Compound 56b],0.689 ± 0.239,0.327 ± 0.052,–,"A1/A2a ratio ([2]; rat, brain membranes): 2.1"
"Cn1c(=O)c2c(nc(CCc3cccc(N)c3)n2C)n(C)c1=O [Compound 57, 1,3,7-Trimethyl-8-[2-(3-aminophenyl)ethyl]xanthine]",–,–,–,"inhibition at 10 µM [1]: 15%; fold less potent at A2 receptors than 22b [2]: ~ 300 fold; Ki [2, 5]: 18 µM"
COc1cccc2cc(-c3nc4c([nH]3)c(=O)n(C)c(=O)n4C)oc12 [Compound 58a],–,–,–,"Ki ([1]; Table IV): 1.7 µM; A1/A2 ratio ([2]; Table IV): 0.5; Ki [2, 5]: 3.9 µM"
CCC/C=C/c1nc2c(c(=O)n(C)c(=O)n2C)n1C [n-propyl(Rβ = H)],–,–,–,"Ki ([1]; Table III): 6 µM; A1/A2 ratio ([2]; Table III): 3.8; Ki [2, 6]: 1.6 µM"
C/C(=C\c1nc2c(c(=O)n(C)c(=O)n2C)n1C)c1ccccc1 [phenyl (Rβ = Me)],–,–,–,"Ki ([1]; Table III): 8.68 µM; A1/A2 ratio ([2]; Table III): 6; Ki [2, 6]: 1.42 µM"
